According to patent US12180307B2, “Interleukin-13 binding cyclic oligopeptides and methods of use thereof” (B.A.I. LABORATORIES, LLC, priority 2022, dated 2024):
Where “and” joins values, the source holds several entries; their conditions need not be identical. Identical values can stand only once. Square brackets hold non-standard residues; d marks the D form. Peptide text beside a SMILES is read from it.

Experiments:
[1] = Skin permeability, Franz Cell diffusion cell with artificial skin, Transdermal Diffusion Tester, BCA assay; type: in vitro ADME; conditions: for Average Permeation Rate After 24 Hours (%) / Average Permeation Rate After 1 Hour (%): 32° C., 1.0 mg/mL in PBS; for Papp at 1 h, 1 mg/mL / Average Permeation Rate After 1 Hour (%): after 1 hour; for Papp at 1 h, 1 mg/mL: read-out: Average Permeability Coefficient (Kp) After 1 hour (converted)
Procedure: As used herein, the term “skin permeation rate” of a cyclic oligopeptide is measured using artificial skin (Start M, Merck), and refers to the percentage of the cyclic oligopeptide that penetrate the artificial skin after certain amount of time. For example, if 60% of the total amount of a cyclic oligopeptide of this disclosure has penetrated the artificial skin after 24 hours, then the skin permeation rate of the cyclic oligopeptide is 60% after 24 hours.
As used herein, the term “skin permeability coefficient (Kp)” refers to the rate at which the cyclic oligopeptide penetrates the skin, as measured using artificial skin (Start M, Merck). In some embodiments, permeability coefficient (Kp)(cm/hr) is calculated with the following equation:
[formula] wherein Q(mg) refers to the total amount of cyclic oligopeptide that pass through the artificial skin within a certain amount of time; A(cm^2) refers to the internal cross-section area of the artificial skin in a diffusion cell; T(hr) refers to the total amount of time of cyclic oligopeptide permeation; and ΔC(mg/mL) refers to the concentration difference of the cyclic oligopeptide between the two sides of the artificial skin. In some embodiments, the diffusion cell is a Franz Cell.
Skin permeability of the cyclic oligopeptides generated in Example 1 was measured using Transdermal Diffusion Tester (TK-12D, Shanghai Kai Kai Industrial Co Ltd) and artificial skin (Start M, Merck). Three parallel experimental groups were set up for each sample. The skin permeability of cyclic oligopeptides was evaluated by the following steps: • 1) 2.0 mg cyclic oligopeptide was weighed and dissolved in 100 μL DMSO. Three parallel experimental groups were set up for each cyclic oligopeptide. The cyclic oligopeptide-containing solution was then slowly added dropwise to 1900 μL 1×PBS solution and mixed evenly to prepare a PBS solution with a final concentration of 1.0 mg/mL cyclic polypeptide. • 2) A magnetron was inserted into a Franz Cell diffusion cell, and an artificial skin was sandwiched in the middle of the diffusion cell with the smooth side of the artificial skin facing up. The diffusion cell was then fixed with clamps after assembly. • 3) 7.75 ml 1×PBS solution were then added to the diffusion cell without generating bubbles in the diffusion cell. The sampling port of the diffusion cell was then sealed with parafilm to reduce evaporation. • 4) The temperature of a Transdermal Diffusion Tester was then set to 32° C., and the magneton speed was set to 180 r/min. • 5) The assembled diffusion cell was then put into the Transdermal Diffusion Tester and preheated for 5-10 mins. • 6) 400 μL of 1.0 mg/mL cyclic oligopeptide solution prepared in step 1) was then added to the upper chamber of the diffusion cell, making it evenly dispersed on the surface of the artificial skin without air bubbles. The top port of the diffusion cell was then covered with parafilm to reduce evaporation. • 7) Starting from the time of adding the cyclic oligopeptide solution, samples of about 0.5 mL of the receiving solution were taken at six time points, 1 h, 2 h, 4 h, 8 h, 12 h and 24 h, using a plastic dropper to take out the samples from the sampling port of the diffusion cell. 0.5 mL of 1×PBS solution was added into the diffusion cell to restore the initial volume of the receiving solution. When sampling, the diffusion cell was tilted appropriately to avoid the generation of bubbles. The samples were then numbered and store at −20° C. • 8) A BCA Assay (Micro BCA Protein Assay Kit, Thermo Scientific) was conducted to measure the concentration of cyclic oligopeptide in samples obtained in step 7) (Actual Concentration of the cyclic oligopeptide at the particular time point). Three parallel groups were used. The weight of cyclic oligopeptide in each sample obtained in step 7) equals to Actual Concentration×0.5 mL. • 9) Permeation rate of each cyclic oligopeptide at each time point was calculated according to the following equation: […]

Human IL-13 = Human IL-13 (Homo sapiens, UniProt P35225); assay: Surface plasmon resonance (SPR) binding assay, BIAcore 8K plus, immobilized Fc-tagged IL-13; conditions: 25° C., human IL-13 with Fc-tag immobilized on CM5 chip, read-out: Binding Affinity (KD) for IL-13
Procedure: A SPR assay was conducted to determine the binding affinity of the cyclic oligopeptides generated in Example 1 for IL-13 using a BIAcore 8K plus instrument (GE Healthcare). Human IL-13 with an Fc-tag was immobilized onto the surfaces of Series S Sensor CM5 (GE Healthcare) chips in the range of 5000 resonance units (RU). The binding kinetics were performed at 25° C. with a flow rate of 30 μL/min. The cyclic oligopeptides were analyzed in running buffer comprising 20 mM PBS, 2.7 mM KCl, […], 0.0500 Surfactant P20, pH 7.4, 1% DMSO, starting at 100 μM with gradient of ten two-fold dilutions using solvent correction mode.
FIGS. 2C, 3C, 4C, 5C, 6C, 7C, 8C, 9C, 10C, 11C, and 12C provide SPR response curves for the cyclic oligopeptides generated in Example 1, wherein the x-axis represents time of reaction and y-axis represents altitude of response (Response Units).

FIG. 8D = assay: FIG. 8D
Procedure: Table printed on a drawing sheet, FIG. 8D
The patent's description of the figure: FIG. 8A provides the MS spectrum for Compound 7. FIG. 8B provides the HPLC chromatogram for Compound 7. FIG. 8C provides SPR assay curves showing the binding affinity of Compound 7 for IL-13, the x-axis represents time of reaction and y-axis represents altitude of response (Response Units). FIG. 8D illustrates skin permeation rate of Compound 7 for up to 24 hours. FIG. 8E illustrates average permeability coefficient (Kp) of Compound 7 for 1, 2, 4, 8, 12 and 24 hours.
First reader's note: The substance name Compound 7 comes from the legend of the plot printed above the table; the values are skin permeation over time in three replicates with their average and range.

FIG. 9D = assay: FIG. 9D
Procedure: Table printed on a drawing sheet, FIG. 9D
The patent's description of the figure: FIG. 9A provides the MS spectrum for Compound 8. FIG. 9B provides the HPLC chromatogram for Compound 8. FIG. 9C provides SPR assay curves showing the binding affinity of Compound 8 for IL-13, the x-axis represents time of reaction and y-axis represents altitude of response (Response Units). FIG. 9D illustrates skin permeation rate of Compound 8 for up to 24 hours. FIG. 9E illustrates average permeability coefficient (Kp) of Compound 8 for 1, 2, 4, 8, 12 and 24 hours.
First reader's note: The substance name is taken from the legend of the plot printed above the table in the same figure; the values are three replicate permeation rates, their average and their range.

FIG. 10D = assay: FIG. 10D
Procedure: Table printed on a drawing sheet, FIG. 10D
The patent's description of the figure: FIG. 10A provides the MS spectrum for Compound 9. FIG. 10B provides the HPLC chromatogram for Compound 9. FIG. 10C provides SPR assay curves showing the binding affinity of Compound 9 for IL-13, the x-axis represents time of reaction and y-axis represents altitude of response (Response Units). FIG. 10D illustrates skin permeation rate of Compound 9 for up to 24 hours. FIG. 10E illustrates average permeability coefficient (Kp) of Compound 9 for 1, 2, 4, 8, 12 and 24 hours.
First reader's note: The substance name is taken from the legend of the plot printed above the table; three replicate permeation values, their average and their range per time point.

FIG. 11D = assay: FIG. 11D
Procedure: Table printed on a drawing sheet, FIG. 11D
The patent's description of the figure: FIG. 11A provides the MS spectrum for Compound 10. FIG. 11B provides the HPLC chromatogram for Compound 10. FIG. 11C provides SPR assay curves showing the binding affinity of Compound 10 for IL-13, the x-axis represents time of reaction and y-axis represents altitude of response (Response Units). FIG. 11D illustrates skin permeation rate of Compound 10 for up to 24 hours. FIG. 11E illustrates average permeability coefficient (Kp) of Compound 10 for 1, 2, 4, 8, 12 and 24 hours.
First reader's note: The substance name comes from the legend of the plot above the table; columns 2-4 are three replicate permeation measurements, followed by their average and range.

FIG. 12D = assay: FIG. 12D
Procedure: Table printed on a drawing sheet, FIG. 12D
The patent's description of the figure: FIG. 12A provides the MS spectrum for Compound 11. FIG. 12B provides the HPLC chromatogram for Compound 11. FIG. 12C provides SPR assay curves showing the binding affinity of Compound 11 for IL-13, the x-axis represents time of reaction and y-axis represents altitude of response (Response Units). FIG. 12D illustrates skin permeation rate of Compound 11 for up to 24 hours. FIG. 12E illustrates average permeability coefficient (Kp) of Compound 11 for 1, 2, 4, 8, 12 and 24 hours.
First reader's note: The substance name is taken from the legend of the plot printed above the table on the same sheet; the last column is the range (max minus min) of the three replicates.

Human IL-13, sequence (P35225 25-146): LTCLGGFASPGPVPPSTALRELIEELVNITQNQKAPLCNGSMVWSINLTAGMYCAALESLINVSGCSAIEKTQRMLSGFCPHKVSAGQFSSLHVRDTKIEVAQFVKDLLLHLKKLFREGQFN

Structure (SMILES)	Papp at 1 h, 1 mg/mL [1]	Kd (Human IL-13)	Average Permeation Rate After 1 Hour (%) [1]	Papp at 24 h, 1 mg/mL ([1]; after 24 hours, read-out: Average Permeability Coefficient (Kp) After 24 hours)	Permeation Avg. (%) (FIG. 9D)	Permeation Avg. (%) (FIG. 10D)	Permeation Avg. (%) (FIG. 11D)	Permeation Avg. (%) (FIG. 12D)	Average Permeation Rate After 24 Hours (%) ([1]; after 24 hours)	Permeation Avg. (%) (FIG. 8D)
CC(C)C[C@H]1NC(=O)[C@@H]2CCCN2C(=O)[C@@H](Cc2ccccc2)NC(=O)[C@H](CCCNC(=N)N)NC(=O)[C@H]([C@@H](C)O)NC(=O)[C@H]2CCCN2C1=O [Compound 7, Thr Arg D-Phe Pro D-Leu D-Pro] (cyclo(P[dL][dP]TR[dF]))	15.2 ×10⁻⁶ cm/s	85.1 µM	–	–	–	–	–	–	38.84%	28.31% and 31.36% and 33.66% and 36.74%
CC(C)C[C@@H]1NC(=O)[C@@H](CCCNC(=N)N)NC(=O)[C@@H]2CCCN2C(=O)[C@H](CCC(=O)O)NC(=O)[C@@H]([C@H](C)O)NC(=O)[C@H](Cc2c[nH]c3ccccc23)NC(=O)[C@@H](Cc2c[nH]c3ccccc23)NC1=O [Compound 9, D-Arg Leu D-Trp Trp D-Thr Glu Pro] (cyclo(EP[dR]L[dW]W[dT]))	14 ×10⁻⁶ cm/s	337 µM	–	–	–	31.10% and 41.93% and 48.23% and 55.09%	–	–	–	–

The next lines start with results.

Papp at 1 h, 1 mg/mL [1]	Kd (Human IL-13)	Average Permeation Rate After 1 Hour (%) [1]	Papp at 24 h, 1 mg/mL ([1]; after 24 hours, read-out: Average Permeability Coefficient (Kp) After 24 hours)	Permeation Avg. (%) (FIG. 9D)	Permeation Avg. (%) (FIG. 10D)	Permeation Avg. (%) (FIG. 11D)	Permeation Avg. (%) (FIG. 12D)	Structure (SMILES)	Average Permeation Rate After 24 Hours (%) ([1]; after 24 hours)	Permeation Avg. (%) (FIG. 8D)
7.39 ×10⁻⁶ cm/s	–	12.44%	> 0.0278 ×10⁻⁶ cm/s	17.57% and 23.24% and 27.76% and 32.33%	–	–	–	CSCC[C@@H]1NC(=O)[C@H](Cc2c[nH]c3ccccc23)NC(=O)[C@@H]2CCCN2C(=O)[C@H](CCC(=O)O)NC(=O)[C@H](CCCNC(=N)N)NC(=O)[C@@H](CC(C)C)NC(=O)[C@@H]2CCCN2C1=O [Compound 8, D-Leu Arg Glu Pro Trp Met Pro] (cyclo(EPWMP[dL]R))	35.20%	–
11.7 ×10⁻⁶ cm/s	368 µM	18.96%	–	–	–	29.18% and 39.99% and 47.96% and 56.44%	–	N=C(N)NCCC[C@@H]1NC(=O)[C@H]2CCCN2C(=O)[C@@H](Cc2c[nH]c3ccccc23)NC(=O)[C@H]2CCCN2C(=O)[C@H](CS)NC(=O)[C@H](Cc2ccc(O)cc2)NC(=O)[C@H](CC(=O)O)NC1=O [Compound 10, Arg Asp Tyr Cys D-Pro D-Trp D-Pro] (cyclo(C[dP][dW][dP]RDY))	–	–
7.22 ×10⁻⁶ cm/s	622 µM	11.77%	–	–	–	–	15.61% and 19.18% and 21.74% and 23.90%	CC(C)C[C@@H]1NC(=O)[C@@H](C(C)C)NC(=O)[C@@H](Cc2c[nH]c3ccccc23)NC(=O)[C@@H](CC(C)C)NC(=O)[C@@H]2CCCN2C(=O)[C@H](C(C)C)NC(=O)[C@@H]2CCCN2C(=O)[C@H](CCCNC(=N)N)NC1=O [Compound 11, Val Pro D-Leu D-Trp D-Val Leu Arg Pro] (cyclo(LRPVP[dL][dW][dV]))	–	–
